Test results: ChEMBL document CHEMBL4270579, “Structure-activity relationship and conformational studies of the natural product cyclic depsipeptides YM-254890 and FR900359” (Eur J Med Chem, 2018)
*1 amine or outer side, *2 acyl side, *3 side chain or, on linkers, in order; H or OH if unused. Where a SMILES comes first, the peptide text is derived from it. Bridges are numbered along the chain shown (N, C = ends). [ ]: non-standard residue; d: D form. Leu(3R-O(AcLeu(3R-OH))) = CC(=O)N[C@H](C(=O)O[C@H](C(C)C)[C@H](N)C(=O)O)[C@H](O)C(C)C; X1 = CC(C)[C@@H](O[*:3])[C@H](N[*:1])C(=O)[*:2]; NMeT = CN[C@H](C(=O)O)[C@@H](C)O; dPhLac = O=C(O)[C@H](O)Cc1ccccc1; NMeA = CN[C@@H](C)C(=O)O; NMeDha = C=C(NC)C(=O)O

Key:
[1] = target: Guanine nucleotide-binding protein G(s) subunit alpha isoforms XLas (Homo sapiens, UniProt Q5JWF2); test: Inhibition of Gs coupled adrenergic beta2 receptor in HEK293 cells assessed as reduction in isoproterenol-induced cAMP production pretreated for 1 hr followed by isoproterenol addition and measured after 30 mins by FRET assay; assay type: cell-based
[2] = target: T1, Guanine nucleotide-binding protein subunit alpha-11 (Homo sapiens, UniProt P29992); test: Inhibition of recombinant human Gq/11 coupled N-terminal 3His-tagged M1 receptor expressed in CHOK1 cells assessed as reduction in carbachol-induced IP1 accumulation pretreated for 1 hr followed by carbachol addition and subsequent incubation for 1 hr at 37 degC measured after 15 mins at room temperature by HTRF assay; assay type: cell-based
T1 sequence (P29992 whole entry): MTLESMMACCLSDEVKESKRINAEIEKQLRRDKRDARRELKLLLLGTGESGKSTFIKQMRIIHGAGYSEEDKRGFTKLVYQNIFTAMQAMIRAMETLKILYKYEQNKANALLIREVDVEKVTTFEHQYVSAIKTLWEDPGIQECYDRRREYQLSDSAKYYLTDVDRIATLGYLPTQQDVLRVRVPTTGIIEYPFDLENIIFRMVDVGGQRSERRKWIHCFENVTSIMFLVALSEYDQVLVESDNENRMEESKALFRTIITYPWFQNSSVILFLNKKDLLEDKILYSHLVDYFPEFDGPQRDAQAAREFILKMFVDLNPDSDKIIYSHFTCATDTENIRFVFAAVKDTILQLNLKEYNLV

Sequence of Guanine nucleotide-binding protein G(s) subunit alpha isoforms XLas (Q5JWF2 whole entry, canonical isoform): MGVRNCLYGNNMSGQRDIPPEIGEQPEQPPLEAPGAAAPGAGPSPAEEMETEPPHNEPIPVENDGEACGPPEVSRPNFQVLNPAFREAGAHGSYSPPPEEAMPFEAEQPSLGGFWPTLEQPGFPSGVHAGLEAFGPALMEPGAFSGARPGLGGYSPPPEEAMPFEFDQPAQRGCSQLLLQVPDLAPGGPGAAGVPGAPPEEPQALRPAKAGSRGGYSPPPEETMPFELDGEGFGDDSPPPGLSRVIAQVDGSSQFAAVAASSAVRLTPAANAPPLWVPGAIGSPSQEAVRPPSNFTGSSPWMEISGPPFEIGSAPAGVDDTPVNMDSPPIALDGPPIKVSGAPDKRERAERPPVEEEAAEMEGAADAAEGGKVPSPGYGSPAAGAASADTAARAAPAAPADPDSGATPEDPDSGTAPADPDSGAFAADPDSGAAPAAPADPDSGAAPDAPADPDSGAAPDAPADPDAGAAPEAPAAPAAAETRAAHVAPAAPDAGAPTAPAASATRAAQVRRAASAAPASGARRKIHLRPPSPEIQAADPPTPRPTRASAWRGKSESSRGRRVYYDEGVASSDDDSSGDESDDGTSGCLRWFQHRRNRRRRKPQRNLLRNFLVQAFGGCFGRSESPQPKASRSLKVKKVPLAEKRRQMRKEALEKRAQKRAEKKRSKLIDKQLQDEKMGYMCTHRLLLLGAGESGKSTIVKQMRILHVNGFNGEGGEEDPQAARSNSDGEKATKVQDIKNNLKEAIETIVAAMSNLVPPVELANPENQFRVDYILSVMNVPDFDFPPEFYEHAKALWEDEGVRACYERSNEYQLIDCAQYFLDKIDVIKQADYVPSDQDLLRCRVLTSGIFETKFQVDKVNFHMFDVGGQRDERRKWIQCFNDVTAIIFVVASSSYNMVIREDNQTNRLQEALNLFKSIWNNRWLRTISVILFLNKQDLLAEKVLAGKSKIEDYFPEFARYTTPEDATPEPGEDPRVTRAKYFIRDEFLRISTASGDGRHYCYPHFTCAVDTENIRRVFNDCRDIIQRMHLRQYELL

IC50 [1] [µM]	IC50 [2] [µM]	Structure (SMILES)
> 100	0.88	C=C1C(=O)N[C@@H](C)C(=O)N(C)[C@@H](C)C(=O)N[C@@H]([C@H](OC(=O)[C@@H](NC(=O)CCCCC)[C@H](O)C(C)C)C(C)C)C(=O)N(C)[C@@H]([C@@H](C)OC)C(=O)O[C@H](C)[C@H](NC(C)=O)C(=O)O[C@H](Cc2ccccc2)C(=O)N1C
> 100	> 50	CO[C@H](C)[C@H]1C(=O)O[C@H](C)[C@H](NC(C)=O)C(=O)O[C@H](CC(C)C)C(=O)N(C)[C@H](CO)C(=O)N[C@@H](C)C(=O)N(C)[C@@H](C)C(=O)N[C@@H]([C@H](OC(=O)[C@@H](NC(C)=O)[C@H](O)C(C)C)C(C)C)C(=O)N1C
> 100	1.89	C=C1C(=O)N[C@@H](C)C(=O)N(C)[C@@H](C)C(=O)N[C@@H]([C@H](OC(=O)[C@@H](NC(C)=O)[C@H](O)C(C)C)C(C)C)C(=O)N(C)[C@@H]([C@@H](C)OC)C(=O)OC[C@H](NC(C)=O)C(=O)O[C@H](Cc2ccccc2)C(=O)N1C
> 100	3.69	C=C1C(=O)N[C@@H](C)C(=O)N(C)[C@@H](C)C(=O)N[C@@H]([C@H](OC(=O)[C@@H](NC(C)=O)[C@H](O)C(C)C)C(C)C)C(=O)N(C)[C@@H]([C@@H](C)OC)C(=O)O[C@H](C)[C@H](NC(C)=O)C(=O)O[C@H](CC(C)C)C(=O)N1C
> 100	2.34	C=C1C(=O)N[C@@H](C)C(=O)N(C)[C@@H](C)C(=O)N[C@@H]([C@H](OC(=O)[C@@H](NC(=O)c2ccccc2)[C@H](O)C(C)C)C(C)C)C(=O)N(C)[C@@H]([C@@H](C)OC)C(=O)O[C@H](C)[C@H](NC(C)=O)C(=O)O[C@H](Cc2ccccc2)C(=O)N1C

Structure (SMILES)	IC50 [1] [µM]	IC50 [2] [µM]
C=C1C(=O)N[C@@H](C)C(=O)N(C)[C@@H](C)C(=O)N[C@@H]([C@H](OC(=O)[C@@H](NC(C)=O)[C@H](O)C(C)C)C(C)C)C(=O)N(C)[C@@H]([C@@H](C)OC)C(=O)O[C@@H](C)[C@H](NC(C)=O)C(=O)O[C@H](Cc2ccccc2)C(=O)N1C	> 100	> 50
C=C1C(=O)N[C@@H](C)C(=O)N(C)[C@@H](C)C(=O)N[C@@H]([C@H](OC(=O)[C@@H](NC(C)=O)[C@H](O)C(C)C)C(C)C)C(=O)N(C)[C@@H]([C@@H](C)OC)C(=O)O[C@H](C)[C@H](NC(C)=O)C(=O)O[C@H](Cc2ccccc2)C(=O)N1C	> 100	0.15
C=C1C(=O)N[C@H](C)C(=O)N(C)[C@@H](C)C(=O)N[C@@H]([C@H](OC(=O)[C@@H](NC(C)=O)[C@H](O)C(C)C)C(C)C)C(=O)N(C)[C@@H]([C@@H](C)OC)C(=O)O[C@H](C)[C@H](NC(C)=O)C(=O)O[C@H](Cc2ccccc2)C(=O)N1C	–	36.6
C=C1C(=O)N[C@@H](C)C(=O)N(C)[C@@H](C)C(=O)N[C@@H]([C@H](OC(=O)[C@@H](NC(C)=O)[C@H](O)C(C)C)C(C)C)C(=O)N(C)[C@@H]([C@@H](C)OC)C(=O)O[C@H](C(C)C)[C@H](NC(C)=O)C(=O)O[C@H](Cc2ccccc2)C(=O)N1C (Ac-[X1][dPhLac][NMeDha]A[NMeA][Leu(3R-O(AcLeu(3R-OH)))][NMeT](Me); ester 1-C)	> 100	0.31
